Test results as given in ChEMBL document CHEMBL5055685, “Discovery of the First Potent IDO1/IDO2 Dual Inhibitors: A Promising Strategy for Cancer Immunotherapy” (J Med Chem, 2021).
pIC50: −log10 of the molar value. Active and inactive are the calls of the source.

Key:
[1] = target: Vascular endothelial growth factor receptor 1 (Homo sapiens) (UniProt P17948); test: Inhibition of FLT1 (unknown origin) at 1 uM
HCT-116 [2] = test: Antitumor immunity in BALB/c mouse xenografted with human HCT-116 cells assessed as live Treg cells in tumor-draining lymph nodes by propidium iodide staining based flow cytometry analysis (reference value: 70.6 %); type: functional
[3] = target: Calcium/calmodulin-dependent protein kinase type 1B (Homo sapiens) (UniProt Q6P2M8); test: Inhibition of CAMK1B (unknown origin) at 1 uM
Chain of Calcium/calmodulin-dependent protein kinase type 1B (Homo sapiens) (Q6P2M8 whole entry): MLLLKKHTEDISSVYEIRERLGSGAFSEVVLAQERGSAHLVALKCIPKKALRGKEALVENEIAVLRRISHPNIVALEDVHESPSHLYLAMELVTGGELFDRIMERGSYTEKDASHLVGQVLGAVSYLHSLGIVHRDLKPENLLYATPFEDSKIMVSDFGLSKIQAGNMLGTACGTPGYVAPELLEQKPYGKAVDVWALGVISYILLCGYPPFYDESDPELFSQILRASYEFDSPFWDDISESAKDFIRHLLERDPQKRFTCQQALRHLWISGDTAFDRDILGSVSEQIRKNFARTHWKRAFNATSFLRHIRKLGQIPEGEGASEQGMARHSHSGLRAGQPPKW

[4] = Half life in rat liver microsomes; type: ADME, Microsome
[5] = target: Death-associated protein kinase 1 (Homo sapiens) (UniProt P53355); test: Inhibition of DAPK1 (unknown origin) at 1 uM
Chain of Death-associated protein kinase 1 (Homo sapiens) (P53355 whole entry, looked up): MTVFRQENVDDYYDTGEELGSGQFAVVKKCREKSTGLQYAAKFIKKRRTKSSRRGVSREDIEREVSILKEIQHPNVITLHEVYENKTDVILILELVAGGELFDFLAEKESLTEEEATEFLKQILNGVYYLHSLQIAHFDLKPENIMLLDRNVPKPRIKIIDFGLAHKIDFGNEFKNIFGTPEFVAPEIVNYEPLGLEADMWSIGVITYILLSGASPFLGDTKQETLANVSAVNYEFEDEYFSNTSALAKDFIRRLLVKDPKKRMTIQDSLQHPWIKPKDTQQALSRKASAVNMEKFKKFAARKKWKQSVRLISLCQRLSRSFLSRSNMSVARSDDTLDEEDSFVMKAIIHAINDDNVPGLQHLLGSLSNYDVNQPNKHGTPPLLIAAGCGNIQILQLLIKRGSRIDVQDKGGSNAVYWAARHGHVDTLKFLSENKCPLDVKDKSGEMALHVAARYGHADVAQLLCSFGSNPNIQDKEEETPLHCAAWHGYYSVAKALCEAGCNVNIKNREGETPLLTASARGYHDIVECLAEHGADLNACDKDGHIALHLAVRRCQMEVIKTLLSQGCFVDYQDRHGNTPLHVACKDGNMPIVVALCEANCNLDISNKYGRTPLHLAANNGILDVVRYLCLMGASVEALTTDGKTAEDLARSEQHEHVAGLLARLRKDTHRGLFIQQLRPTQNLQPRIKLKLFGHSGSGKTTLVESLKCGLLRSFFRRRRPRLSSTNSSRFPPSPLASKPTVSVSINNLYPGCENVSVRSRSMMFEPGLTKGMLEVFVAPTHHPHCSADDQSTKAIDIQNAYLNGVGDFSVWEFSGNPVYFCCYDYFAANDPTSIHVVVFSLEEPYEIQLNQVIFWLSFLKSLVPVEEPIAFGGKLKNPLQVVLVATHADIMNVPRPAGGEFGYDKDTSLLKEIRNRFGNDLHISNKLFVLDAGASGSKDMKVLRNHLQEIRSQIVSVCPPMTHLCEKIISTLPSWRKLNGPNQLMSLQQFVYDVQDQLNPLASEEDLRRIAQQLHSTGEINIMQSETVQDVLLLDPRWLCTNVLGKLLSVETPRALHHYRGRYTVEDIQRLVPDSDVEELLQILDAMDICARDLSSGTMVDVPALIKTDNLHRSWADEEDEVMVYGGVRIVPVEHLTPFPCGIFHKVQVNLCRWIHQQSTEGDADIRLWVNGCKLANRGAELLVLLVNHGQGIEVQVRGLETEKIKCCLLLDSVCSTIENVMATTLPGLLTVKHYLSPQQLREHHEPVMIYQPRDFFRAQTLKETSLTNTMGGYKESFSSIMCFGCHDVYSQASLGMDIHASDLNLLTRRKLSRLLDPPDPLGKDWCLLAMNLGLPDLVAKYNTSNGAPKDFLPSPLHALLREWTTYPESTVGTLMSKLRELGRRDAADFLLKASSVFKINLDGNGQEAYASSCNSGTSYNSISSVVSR

[6] = target: Activin receptor type-1B (Homo sapiens) (UniProt P36896); test: Inhibition of ALK4 (unknown origin) at 1 uM
[7] = target: Serine/threonine-protein kinase PAK 5 (Homo sapiens) (UniProt Q9P286); test: Inhibition of PAK5 (unknown origin) at 1 uM
[8] = target: Mitogen-activated protein kinase 1 (Homo sapiens) (UniProt P28482); test: Inhibition of ERK2 (unknown origin) at 1 uM
Chain of Mitogen-activated protein kinase 1 (Homo sapiens) (P28482 whole entry): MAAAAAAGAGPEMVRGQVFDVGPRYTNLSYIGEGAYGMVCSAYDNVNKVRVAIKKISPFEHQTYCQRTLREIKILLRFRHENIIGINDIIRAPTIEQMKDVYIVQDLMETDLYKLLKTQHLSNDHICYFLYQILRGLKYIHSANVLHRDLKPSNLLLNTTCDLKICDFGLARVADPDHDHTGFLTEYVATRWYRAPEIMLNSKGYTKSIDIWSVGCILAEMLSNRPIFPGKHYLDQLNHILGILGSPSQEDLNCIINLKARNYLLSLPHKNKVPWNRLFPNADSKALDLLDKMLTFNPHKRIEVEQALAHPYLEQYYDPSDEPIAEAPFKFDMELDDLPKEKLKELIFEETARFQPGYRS

[9] = target: CDK2/Cyclin A2 (Homo sapiens) (UniProt P24941+P20248); test: Inhibition of CDK2/cyclin-A (unknown origin) at 1 uM; type: protein-complex assay
[10] = target: Tyrosine-protein kinase HCK (Homo sapiens) (UniProt P08631); test: Inhibition of HCK (unknown origin) at 1 uM
[11] = target: Misshapen-like kinase 1 (Homo sapiens) (UniProt Q8N4C8); test: Inhibition of MINK1 (unknown origin) at 1 uM
[12] = target: Serine/threonine-protein kinase PLK3 (Homo sapiens) (UniProt Q9H4B4); test: Inhibition of PLK3 (unknown origin) at 1 uM
[13] = target: Wee1-like protein kinase (Homo sapiens) (UniProt P30291); test: Inhibition of WEE1 (unknown origin) at 1 uM
[14] = target: Dual specificity mitogen-activated protein kinase kinase 7 (Homo sapiens) (UniProt O14733); test: Inhibition of MKK7 (unknown origin) at 1 uM
[15] = target: Ribosomal protein S6 kinase alpha-6 (Homo sapiens) (UniProt Q9UK32); test: Inhibition of RSK4 (unknown origin) at 1 uM
Mus musculus = test: In vivo inhibition of IDO1/IDO2 in BALB/c mouse xenografted with human HCT-116 cells assessed as reduction in KYN level in serum by […]; type: functional, organism-based
[16] = target: Non-receptor tyrosine-protein kinase TNK1 (Homo sapiens) (UniProt Q13470); test: Inhibition of TNK1 (unknown origin) at 1 uM
[17] = target: Tyrosine-protein kinase Lyn (Homo sapiens) (UniProt P07948); test: Inhibition of LYN-B (unknown origin) at 1 uM
[18] = target: Serine/threonine-protein kinase 32C (Homo sapiens) (UniProt Q86UX6); test: Inhibition of STK32C (unknown origin) at 1 uM
PBMC = test: Inhibition of IDO1/IDO2 in IFNgamma/LPS-stimulated human PBMCs assessed as reduction in kynurenine formation at 0.0001 to 10 uM pretreated with compound for 15 mins followed by IFNgamma/LPS stimulation by LC-MS/MS analysis; type: tissue-based; settings: dose 0.0001-10 µM
[19] = target: Serine/threonine-protein kinase TBK1 (Homo sapiens) (UniProt Q9UHD2); test: Inhibition of TBK1 (unknown origin) at 1 uM
[20] = target: Ephrin type-A receptor 5 (Homo sapiens) (UniProt P54756); test: Inhibition of EPHA5 (unknown origin) at 1 uM
[21] = target: Ephrin type-A receptor 2 (Homo sapiens) (UniProt P29317); test: Inhibition of EPHA2 (unknown origin) at 1 uM
[22] = target: Cyclin-Y/Cyclin-dependent kinase 16 (Homo sapiens) (UniProt Q00536+Q8ND76); test: Inhibition of CDK16/cyclin-Y (unknown origin) at 1 uM; type: protein-complex assay
[23] = target: Rho-associated protein kinase 1 (Homo sapiens) (UniProt Q13464); test: Inhibition of ROCK1 (unknown origin) at 1 uM
[24] = target: Ribosomal protein S6 kinase alpha-4 (Homo sapiens) (UniProt O75676); test: Inhibition of MSK2 (unknown origin) at 1 uM
[25] = target: Voltage-gated inwardly rectifying potassium channel KCNH2 (Homo sapiens, UniProt Q12809); test: Inhibition of human ERG
[26] = target: cAMP-dependent protein kinase catalytic subunit PRKX (Homo sapiens) (UniProt P51817); test: Inhibition of PRKX (unknown origin) at 1 uM
[27] = target: Receptor tyrosine-protein kinase erbB-2 (Homo sapiens) (UniProt P04626); test: Inhibition of ERBB2 (unknown origin) at 1 uM
[28] = target: TRAF2 and NCK-interacting protein kinase (Homo sapiens) (UniProt Q9UKE5); test: Inhibition of TNIK (unknown origin) at 1 uM
[29] = AUC (0 to t) in Sprague-Dawley rat at 50 mg/kg, po; type: ADME, organism-based; parameters: dose 50 mg/kg, route po; settings: in vivo
[30] = target: Myotonin-protein kinase (Homo sapiens) (UniProt Q09013); test: Inhibition of DMPK (unknown origin) at 1 uM
[31] = target: Serine/threonine-protein kinase Nek4 (Homo sapiens) (UniProt P51957); test: Inhibition of NEK4 (unknown origin) at 1 uM
Chain of Serine/threonine-protein kinase Nek4 (Homo sapiens) (P51957 whole entry, looked up): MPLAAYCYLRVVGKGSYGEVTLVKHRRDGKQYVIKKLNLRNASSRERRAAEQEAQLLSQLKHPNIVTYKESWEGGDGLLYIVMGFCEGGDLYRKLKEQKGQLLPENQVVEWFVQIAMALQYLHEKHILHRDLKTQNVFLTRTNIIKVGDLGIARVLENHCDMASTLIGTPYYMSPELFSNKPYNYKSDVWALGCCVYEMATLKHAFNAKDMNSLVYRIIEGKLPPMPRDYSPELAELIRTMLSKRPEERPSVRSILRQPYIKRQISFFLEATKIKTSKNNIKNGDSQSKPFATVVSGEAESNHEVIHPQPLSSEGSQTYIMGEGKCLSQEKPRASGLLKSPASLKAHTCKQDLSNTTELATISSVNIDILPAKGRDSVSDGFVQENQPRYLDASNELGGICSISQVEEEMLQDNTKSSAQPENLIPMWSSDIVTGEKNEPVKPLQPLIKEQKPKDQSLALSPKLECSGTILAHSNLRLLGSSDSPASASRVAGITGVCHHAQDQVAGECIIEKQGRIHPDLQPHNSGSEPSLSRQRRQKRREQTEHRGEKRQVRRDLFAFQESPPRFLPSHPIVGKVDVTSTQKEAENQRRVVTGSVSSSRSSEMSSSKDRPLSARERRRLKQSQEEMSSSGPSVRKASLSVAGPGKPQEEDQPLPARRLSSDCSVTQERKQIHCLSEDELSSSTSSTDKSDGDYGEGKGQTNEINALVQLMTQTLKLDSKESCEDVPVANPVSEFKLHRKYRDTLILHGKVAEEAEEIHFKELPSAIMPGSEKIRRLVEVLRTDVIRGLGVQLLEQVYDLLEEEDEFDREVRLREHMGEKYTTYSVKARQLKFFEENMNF

HCT-116 [32] = test: Antitumor immunity in BALB/c mouse xenografted with human HCT-116 cells assessed as early Treg cells in tumor-draining lymph nodes by propidium iodide staining based flow cytometry analysis (reference value: 7.24 %); type: functional
[33] = target: Protein kinase C alpha type (Homo sapiens) (UniProt P17252); test: Inhibition of PKCalpha (unknown origin)at 1 uM
[34] = target: MAP/microtubule affinity-regulating kinase 4 (Homo sapiens) (UniProt Q96L34); test: Inhibition of MARK4 (unknown origin) at 1 uM
Chain of MAP/microtubule affinity-regulating kinase 4 (Homo sapiens) (Q96L34 whole entry): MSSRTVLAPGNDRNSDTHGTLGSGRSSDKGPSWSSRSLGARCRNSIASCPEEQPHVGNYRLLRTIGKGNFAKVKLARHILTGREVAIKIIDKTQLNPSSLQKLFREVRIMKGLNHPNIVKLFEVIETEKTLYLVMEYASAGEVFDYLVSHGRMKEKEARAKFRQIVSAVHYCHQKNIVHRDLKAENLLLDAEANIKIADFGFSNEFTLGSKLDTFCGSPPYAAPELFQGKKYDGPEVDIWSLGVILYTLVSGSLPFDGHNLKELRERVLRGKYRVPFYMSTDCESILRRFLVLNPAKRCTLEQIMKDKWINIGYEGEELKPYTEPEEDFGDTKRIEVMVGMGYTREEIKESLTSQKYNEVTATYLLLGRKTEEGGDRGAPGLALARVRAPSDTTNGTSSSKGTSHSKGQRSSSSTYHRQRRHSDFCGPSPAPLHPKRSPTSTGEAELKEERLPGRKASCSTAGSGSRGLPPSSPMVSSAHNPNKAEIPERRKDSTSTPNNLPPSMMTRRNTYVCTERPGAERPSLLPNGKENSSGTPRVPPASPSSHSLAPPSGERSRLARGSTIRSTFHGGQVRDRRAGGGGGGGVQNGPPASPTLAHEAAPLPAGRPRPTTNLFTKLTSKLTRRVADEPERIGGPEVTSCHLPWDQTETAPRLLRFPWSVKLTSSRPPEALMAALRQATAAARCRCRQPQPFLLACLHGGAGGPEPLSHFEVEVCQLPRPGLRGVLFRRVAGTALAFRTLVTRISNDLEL

[35] = target: Inhibitor of nuclear factor kappa-B kinase subunit epsilon (Homo sapiens) (UniProt Q14164); test: Inhibition of IKKepsilon (unknown origin) at 1 uM
[36] = target: Serine/threonine-protein kinase PAK 3 (Homo sapiens) (UniProt O75914); test: Inhibition of PAK3 (unknown origin) at 1 uM
[37] = target: G protein-coupled receptor kinase 3 (Homo sapiens) (UniProt P35626); test: Inhibition of GRK3 (unknown origin) at 1 uM
[38] = target: Serine/threonine-protein kinase Nek6 (Homo sapiens) (UniProt Q9HC98); test: Inhibition of NEK6 (unknown origin) at 1 uM
[39] = target: Ribosomal protein S6 kinase alpha-3 (Homo sapiens) (UniProt P51812); test: Inhibition of RSK2 (unknown origin) at 1 uM
[40] = target: Serine/threonine-protein kinase tousled-like 2 (Homo sapiens) (UniProt Q86UE8); test: Inhibition of TLK2 (unknown origin) at 1 uM
[41] = target: LIM domain kinase 2 (Homo sapiens) (UniProt P53671); test: Inhibition of LIMK2 (unknown origin) at 1 uM
Chain of LIM domain kinase 2 (Homo sapiens) (P53671 whole entry, looked up, the tested form may be a part): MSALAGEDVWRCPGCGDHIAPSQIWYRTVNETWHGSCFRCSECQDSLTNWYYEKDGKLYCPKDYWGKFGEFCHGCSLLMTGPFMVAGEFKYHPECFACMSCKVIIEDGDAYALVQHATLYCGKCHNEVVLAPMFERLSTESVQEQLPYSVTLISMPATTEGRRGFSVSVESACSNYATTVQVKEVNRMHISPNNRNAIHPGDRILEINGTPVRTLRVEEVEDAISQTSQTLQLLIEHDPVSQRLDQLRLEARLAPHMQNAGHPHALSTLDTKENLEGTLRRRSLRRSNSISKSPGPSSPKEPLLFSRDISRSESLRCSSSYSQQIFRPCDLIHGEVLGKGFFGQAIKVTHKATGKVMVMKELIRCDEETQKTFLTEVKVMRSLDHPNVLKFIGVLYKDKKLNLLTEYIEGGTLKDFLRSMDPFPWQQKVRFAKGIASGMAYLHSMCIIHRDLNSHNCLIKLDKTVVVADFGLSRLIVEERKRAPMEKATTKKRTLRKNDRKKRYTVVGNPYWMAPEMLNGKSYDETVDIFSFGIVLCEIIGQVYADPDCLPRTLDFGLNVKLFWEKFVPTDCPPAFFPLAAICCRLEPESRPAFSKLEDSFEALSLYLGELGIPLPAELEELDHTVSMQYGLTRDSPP

OCCOCc1cn(CCNc2nonc2/C(=N/O)Nc2ccc(F)c(Br)c2)nn1
88.1%: Activity (HCT-116 [2])
active: inhibition (Mus musculus) | inhibition (PBMC)
3.84%: Activity (HCT-116 [32])
inactive: inhibition [1] | inhibition [3] | inhibition [5] | inhibition [6] | inhibition [7] | inhibition [8] | inhibition [9] | inhibition [10] | inhibition [11] | inhibition [12] | inhibition [13] | inhibition [14] | inhibition [15] | inhibition [16] | inhibition [17] | inhibition [18] | inhibition [19] | inhibition [20] | inhibition [21] | inhibition [22] | inhibition [23] | inhibition [24] | inhibition [26] | inhibition [27] | inhibition [28] | inhibition [30] | inhibition [31] | inhibition [33] | inhibition [34] | inhibition [35] | inhibition [36] | inhibition [37] | inhibition [38] | inhibition [39] | inhibition [40] | inhibition [41]
21.2 min: half-life [4]
3640 ng·h/mL: AUC(0-t) [29]
< 4.52: pIC50 [25]
